Laboratory results from patent US11672828B2, “Cellular receptors and uses thereof” (TRUSTEES OF BOSTON UNIVERSITY, priority 2020, dated 2023).
“Also recorded” adds a separate entry of the source.

How the values were obtained:
apSyN = experiment: Plated ligand assay, apSyN (AP-SynNotch) cells with UAS:H2B-mCherry reporter; format: cell-based; details: for reporter (mCherry) activation by plated ligand: apSyN/AP-SynNotch cells with or without BirA-ER (BirA-KDEL)
Excerpt: In order to determine if the apSyN could undergo predicted signaling mechanics of extracellular binding and intracellular domain release based on the presence of the PTM, we used an established Notch signaling assay23 (FIG. 2A). […] We instead interrogated the signaling capabilities by coating tissue culture wells with an anti-Biotin antibody that is specific for biotinamide24.
Next to be evaluated were the signaling properties of AP-SynNotch. Here, the activity of the receptor in response to different ligands was compared in cells with and without BirA-KDEL. Using a receptor containing a Gal4-VP64 ICD, the signaling activity of AP-SynNotch was measured in transfected HEK293 cells containing a stably-integrated reporter gene (UAS:H2B-mCherry). In order to stimulate receptor activation, transfected cells were grown on culture surfaces containing immobilized ligands, and reporter expression levels were measured the next day using flow cytometry (FIG. 11D).

anti-Biotin ligand = experiment: Coculture luciferase assay, apSyN/BirA receiver cells with anti-Biotin ligand sender cells, soluble competitors; format: cell-based; details: different concentrations of the molecules in coculture
Method: To examine this behavior more quantitatively, we used an established luciferase-based coculture assay28. Receptor cells were transfected with a luciferase reporter plasmid, and ligand expressing cells were added the next day. Finally cells were lysed after one day of coculturing to examine the luminescence due to luciferase expression (FIG. 3C).
We also saw a similar ability to control activation with small molecules in this coculture assay. […] We sought to develop an inhibition method that is specific for this pathway and therefore allow for additional control of signaling without disrupting native pathways. […] We used the previously established coculture assay while culturing cells in different concentrations of the described molecules and then analyzed the corresponding luciferase expression.
(§1) The luciferase assay used for coculture studies was adapted from Gordon et al28. Synthetic Notch receiver cells were reverse transfected in a 96-well plate (50 k cells per well) with 9.9 ng of UAS:Firefly-Luciferase plasmid and 0.1 ng Nanoluc plasmid per well. 24 hr post-transfection, 80 k sender cells were added to each well. 48 hr post-transfection, cells were lysed (Nano-Glo Dual-Luciferase Reporter Assay System, Promega) and the luminescence was found following the manufacturer's instructions. Each well was normalized to the luminescence output of Nanoluc (transfection control).
Tight-regulation is a requirement of cell-engineered systems in biomedical applications, and such control can be achieved by combining genetic strategies with external drug-control. Thus, it was next sought to design exogenous molecules that could be combined with the present encodable components in order to achieve versatile “chemogenetic” control. Soluble binding proteins can be used to block trans-cellular interactions between endogenous Notch receptors and ligands. It was tested whether soluble biotin-derived compounds could be used to competitively interact between our synthetic ligand and receptor (FIG. 12G). […] In addition to their selective recognition by Anti-Biotinamide, the cell-impermeant nature of biocytin and bis-biotinamide offer the advantageous feature of limiting disruption/inhibition to cell-surface presented components.
as §1, with “al^59.” for “al28.”, “24 hr post-transfection, 80 k sender cells were added to each well.” left out, “(Nano-Go” for “(Nano-Glo”

antiBiot synthetic Notch = experiment: Plated ligand assay, antiBiot synthetic Notch (Anti-Biotinamide SynNotch) cells; details: soluble ligand introduced at the time of plating
Method: We first asked if this synthetic receptor cell line could activate to various ligands coated on a 96 well plate.
Nontreated 96-well plates were coated with Fibronectin (5 ng/mL) and plated ligand in 50 μL PBS for 1-hr. Initial experiments were done with a serial dilution of ligand to determine working concentrations. The wells were rinsed three times with 200 μL PBS, and 40 k synthetic Notch receiver cells were plated in each well. Receptor activation was measured 24 hr post-plating via fluorescence microscopy or flow cytometry.
Cells analyzed with an Attune NxT flow cytometer and were gated for living cells by scatter detection. The percent activation was determined by calculating the percentage of cells with mCherry expression levels above a certain threshold.
Nontreated 96-well plates were coated with Fibronectin (5 ng/mL) and plated ligand in 50 μL PBS for 1 hr. […] Receptor activation was measured 24 hr post-plating via fluorescence microscopy or flow cytometry.
Flow Cytometry Cells analyzed with an Attune NxT flow cytometer and were gated for single cells by scatter detection (FIGS. 19A-19C). Output files were analyzed with a custom MATLAB (Mathworks) script. The percent activation was determined by calculating the percentage of cells with mCherry expression levels above a determined threshold using the non-transfected control as a guide.

avidin = details: avidin-based systems; cited from earlier work
[1] = test system: anti-FITC Synthetic Notch; experiment: Coculture of anti-FITC Synthetic Notch cells and anti-biotin ligand cells with biotin-FITC linker (Luciferase reporter); format: cell-based; details: FIG. 20
Excerpt: FIG. 20 depicts graphs in which the x-axis of the plot is the biotin-FTC concentration, the y-axis is the extent of signaling (via a Luciferase reporter). The legend gives two different sender-cells used in the coculture—one with the anti-biotin ligand, and one without.
Described herein is the use of biotin-FITC as a small-molecule linker with the ability to induce trans-cellular signaling. In this coculture system, a first group of cells expressed an anti-FITC Synthetic Notch, which can bind one end of the biotin-FITC, and a second group of cells expressed an anti-biotin ligand (described in other Examples herein), which binds the other end.

scFab-Gal4 and AP-VP64 = experiment: UAS:H2B-mCherry reporter cells with scFab-Gal4, AP-VP64 and BirA, treated with soluble biotinamides; format: cell-based; details: varying concentrations, compared with biocytin
Method: Reporter HEK293 cells with an integrated UAS:H2B-mCherry construct were transfected with a construct containing constitutive expression of AP-VP64 and AntiBiotinamide-scFAB-Gal4. The cells were cotransfected with a construct containing Citrine-HA-BirA. At the time of transfection, samples were incubated with different concentrations of Biocytin and Biotin-cadaverine. Samples were measured the next day with flow cytometry, gating for Citrine expression.
Lastly, it was asked whether intracellular protein complexes could be disrupted using exogenously applied biotinamide. To test this possibility, cells were treated with biocytin as well as biotin-cadaverine, a membrane-permeant biotinamide derivative (6). To measure the disruption of intracellular complexes, BirA was co-expressed alongside scFab-Gal4 and AP-VP64 in UAS:H2B-mCherry reporter cells, and the extent of mCherry expression was quantified from cells treated with varying concentrations of biocytin and biotin-cadaverine (FIG. 18A).

[2] = test system: Anti-Biotinamide SynNotch; experiment: Anti-Biotinamide SynNotch cells on TCO-BSA coated wells with added biotin-tetrazine, flow cytometry; format: cell-based
Excerpt: (FIG. 13A). Receptors that are specific to biotinamide process inputs dependent on the biotinylation state of the ligand. (FIG. 13B). Anti-Biotinamide SynNotch expressing cells activate to both biotin-based and desthiobiotin-based substrates. The cells activate with slightly less adsorbed biotin than desthiobiotin. (FIG. 13C). Cells expressing Anti-Biotinamide SynNotch were cocultured with cells transfected with an AP-tagged cell surface ligand with or without BirA, or non-transfected cells. (FIG. 13D). Biotin-tetrazine (4) is a bispecific molecule that will bind to the Anti-Biotinamide antibody fragment and TCO-(5), which is conjugated to BSA. (FIG. 13E). Anti-Biotinamide SynNotch expressing cells cultured on TCO-conjugated BSA will bind to exogenously added biotin-tetrazine. (FIG. 13F). Anti-Biotinamide SynNotch expressing cells were cultured on wells coated with TCO-BSA and one day later, biotin-tetrazine was added at different concentrations to the wells. At two days after plating, cellular fluorescence was analyzed with flow cytometry.
In an effort to develop synthetic agonists, a bioorthogonal chemical ligation was also exploited in order to convert a soluble biotin derivative into an immobilized (signaling competent) ligand in situ. […]

[3] = free biotin versus biotin with an amide linker; cited from earlier work

## C[C@H](NC(=O)Cc1cc(F)cc(F)c1)C(=O)N[C@H](C(=O)OC(C)(C)C)c1ccccc1 [DAPT]
apSyN; plated anti-Biotin or anti-myc antibody
  effect of Notch pathway (γ-secretase) inhibitor on mCherry expression: ablated mCherry expression in all cases

## N[C@@H](CCCCNC(=O)CCCC[C@@H]1SC[C@@H]2NC(=O)N[C@@H]21)C(=O)O [biocytin]
anti-Biotin ligand
  inhibition of cell signaling (luciferase) by competitive binding to the ligand: able to inhibit cell signaling to some degree; also recorded: act as inhibitors of signaling
antiBiot synthetic Notch
  concentration at which activation was lowered: 3 µM

## O=C(O)CCCC[C@@H]1SC[C@@H]2NC(=O)N[C@@H]21 [biotin]
anti-Biotin ligand
  inhibition of cell signaling (luciferase) by competitive binding to the ligand: limited impact on cell signaling

## C[C@@H]1NC(=O)N[C@@H]1CCCCCC(=O)O [desthiobiotin]
avidin
  binding constant, fold less than biotin: 106 fold

## Neutravidin: adsorbed biotin-binding protein
apSyN
  reporter (mCherry) activation by plated ligand: able to activate apSyN cells, but has decreased activation at higher concentrations
apSyN; listed as neutravidin
  reporter (mCherry) activation by plated ligand: can activate the biotinylated receptor

## biotin-FITC
[1]
  signaling capacity versus concentration: low concentrations do not induce signaling, and high concentrations lead to lower signaling

## biotin-cadaverine
scFab-Gal4 and AP-VP64
  inhibition of intracellular biotin-dependent reporter (mCherry) expression: more sensitive
scFab-Gal4 and AP-VP64; listed as Biotin-cadaverine
  inhibition of intracellular biotin-dependent reporter (mCherry) expression: effective competitive inhibitor

## biotin-tetrazine
[2]; biotin-tetrazine added one day after plating on TCO-BSA
  reporter activation: able to activate reporter expression only when cultured with biotin-tetrazine
[2]; high concentrations of biotin-tetrazine
  inhibition of receptor activation: inhibited with high concentrations

## bis-biotinamide
anti-Biotin ligand
  inhibition of cell signaling (luciferase) by competitive binding to the ligand: more potent inhibition
anti-Biotin ligand; listed as Bis-biotinamide
  inhibition of cell signaling (luciferase) by competitive binding to the ligand: increased ability to inhibit cell activation; also recorded: inhibits more effectively

B1: biotinamide-specific antibody: antibody from which the anti-biotinamide single chain variable fragment was developed (antibody)
heavy: EVQLQQSGAELVKPGASVKLSCTSSGFNNKDTFFQWVKQRPEEGLEWIGRIDPANGFTKYDPKFQGKATITVDTSSNTAYLQLNSLTSEDTALYYCTRWDTYGAAWFAYWGQGTLVTVSAAKTTPPSVYPLAPGSAAQTNSMVTLGCLVKGYFPEPVTVTWNSGSLSSGVHTFPAVLQSDLYTLSSSVTVPSSTWPSETVTCNVAHPASSTKVDKKIVPR
light: DIQMTQSPASLSASVGETVTITCRASGNIHNYLSWFQQKQGKSPQLLVYSAKTLADGVPSRFSGSGSGTQYSLKINSLQPEDFGTYYCQHFWSSIYTFGGGTKLEIKRADAAPTVSIFPPSSEQLTSGGASVVCFLNNFYPKDINVKWKIDGSERQNGVLNSWTDQDSKDSTYSMSSTLTLTKDEYERHNSYTCEATHKTSTSPIVKSFNRNEC
[3]
  binding specificity: does not bind to free biotin but binds to biotin with an amide linker
